Measurements reported in US6383490B1, “Anti-cocaine vaccine” (The Scripps Research Institute, priority 1995, dated 2002).

Assays:
[1] = tested on: cocaine-binding immunoglobulins; experiment: Competitive binding studies of the immune response (cocaine-binding immunoglobulins)
From the text: Consequently, inhibition of cocaine-binding immunoglobulins would not be expected in vivo from these metabolites.

[2] = Plasma cocaine levels by HPLC; assay type: in vivo, rat; settings: 15 mg/kg i.p.
From the text: Analysis of serum immunoglobulin dissociation kinetics, antigen-binding capacity and the effect of antigen dilution (P. Minden, et al., in Handbook of Experimental Immunology. Weir, D. M., Ed., (Davis Co., Philadelphia, 1967), chap. 13, pp. 463-492; M. W. Steward et al., Antibody Affinity: Thermodynamic Aspects and Biological Significance, (CRC Press, Boca Raton, Fla., 1983); H. N. Eisen, in Methods in Medical Research. Eisen, H. N., Ed., (Yearbook Medical Publishers, Chicago, 1964), pp. 106-114; J. H. Hill, et al. Clin. Exp. Immunol. (1973): vol. 15, p 213-224.) were consistent with an in vivo antibody excess having a micromolar average binding constant. […] To complement these experiments, plasma cocaine levels were determined by HPLC according to a modified method of Benuck (M. Benuck, et al., J. Pharmacol. Exp. Ther.(1987): vol. 243, p 144-149) following a 15 mg/kg i.p. injection in a separate group of animals.

SMILES: COC(=O)[C@@H]1[C@H]2CC[C@@H](C[C@@H]1O)N2C [ecgonine methyl ester]
- inhibition of cocaine-binding by competitor [1]: no detectable inhibition

SMILES: COC(=O)[C@H]1[C@@H](OC(=O)c2ccccc2)C[C@@H]2CC[C@H]1N2C [cocaine, (−)-cocaine]
- peak plasma concentration [2]: 5.56 ± 0.31 µM
- time of peak plasma concentration [2]: 5 min
- half-life ([2]; Wistar, rat, plasma, ip): 25 min

SMILES: CN1[C@H]2CC[C@@H]1[C@@H](C(=O)O)[C@@H](OC(=O)c1ccccc1)C2 [benzoylecgonine]
- discrimination for cocaine versus competitor ([1]; immune response to hapten 4 conjugate): greater than 900 fold
